{"source": "patent EP0808325B1", "about": "“[…] […] SERIES FOR […] GABA RECEPTOR” (priority 1994, dated 1996)", "key": {"rats": {"tested_on": "rats", "test": "Vogel test", "assay_type": "in vivo", "conditions": "i.c.v.", "source_text": "The Vogel test is based on the development of a conflict between a highly motivated behavior and an aversion. For this test, the strong motivation is thirst. The animal is water deprived for 12-16 hrs to produce the motivation to drink. During the training period the animals are exposed to the testing environment so they become accustomed to the drinking spout and minimize the fear of a novel environment. Following training, the animals are allowed access to water for 2 hrs. During this time, the animals will drink and eat their normal amount of water and food, compensating for the deprivation time. However, this schedule still produces a strong motivation to drink during the testing period.\nHaving been deprived of water for twelve to sixteen hours, an animal is placed in a test cage where it is allowed to drink freely for five minutes. This period is used to habituate the animal to the environment and the drinking spout Following the training period, animals have access to water and food in their home cage for 2 hrs. Food is available at all times. Twenty-four hours later, drug is administered to the animal intracerebroventricularly.\nAfter an indicated delay started from the time of injection the animal is again placed in the test cage for ten minutes. A computer counts each time the animal licks, and after every twentieth lick administers a mild electric stimulus across the tongue and/or feet. The electrical stimulus consists of a 0.6 mA current with a duration of 100 msec. This procedure produces a state of conflict for the animal that is reduced by the administration of clinically used anxiolytic agents (i.e., Valium). For dose-response curves, separate groups of animals are injected with increasing doses of test drug and are tested at a predetermined time."}, "GR complex": {"target": "GR complex", "test": "modulation of [35S]TBPS binding in rat cerebral cortex P2 homogenate", "parameters": "species or system Sprague-Dawley rats; IMAX: unit not given here", "conditions": "for pIC50: concentration of compounds to inhibit 50% of control [35S]TBPS binding, 2 nM [35S]TBPS, 25°C, 90 minutes, no unit printed; for IMAX: maximum inhibition of [35S]TBPS binding, I* = Inactive", "how_it_was_run": "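Rat (male Sprague-Dawley) cortical P2 homogenate, 0.5 mg protein, in 50 mM Na/K phosphate pH 7.4, 200 mM NaCl, incubated 90 min at 25° C with 2 nM [35S]TBPS plus GABA and (+)bicuculline, compounds added in DMSO. Filter-bound radioactivity counted; nonspecific binding defined with […].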"}, "(+)bicuculline": {"tested_on": "(+)bicuculline", "conditions": "cited from earlier work"}, "maximal electroshock [1]": {"tested_on": "maximal electroshock", "conditions": "cited from earlier work"}, "[2]": {"tested_on": "metrazol induced convulsions", "conditions": "cited from earlier work"}, "picrotoxin": {"tested_on": "picrotoxin", "conditions": "cited from earlier work"}, "mice [3]": {"tested_on": "mice", "conditions": "Rotorod; data from Swinyard & Woodhead 1982; cited from earlier work"}, "mice [4]": {"tested_on": "mice", "test": "elevated plus-maze", "assay_type": "in vivo, N.I.H. Swiss-Webster mice", "how_it_was_run": "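Male Swiss-Webster mice (15-20 g), dosed once with drug or vehicle, were placed on an elevated plus-maze 10 min post-injection for 5 min. Open-arm entries and open-arm time recorded, each as a percentage of total arm entries or time; center time excluded.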"}, "mice [5]": {"tested_on": "mice", "test": "light/dark transition test", "assay_type": "in vivo, N.I.H. Swiss-Webster mice", "conditions": "IP", "source_text": "The light/dark transition test (Crawley and Goodwin, Pharmacol. Biochem. Behav. 13:67-70 1980) is based on the observation that rodents naturally tend to explore novel environments, but open, brightly lit arenas are aversive to the rodents and inhibit exploratory behavior (Christmas and Maxwell, Neuropharmacol. 9:17-29 1970; File, J. Neurosci. Meth. 2:219-238 1980).\nMale N.I.H. Swiss-Webster mice (Harlan, Harlan, Indianapolis, IN) weighing 15-20 g were housed four per cage in polyethylene cages with sawdust bedding. The colony room was environmentally controlled (22°C) with a 12 hr light/dark cycle (0600-1800 hr). Food and water were available ad libitum, except during testing. The experiments were run from 0700-1500 hr and groups were counterbalanced for time of day effects. Mice were only administered drug or vehicle once.\nThe method used was a modification of methods previously described (Wieland et al., Br. Res. 565:263-268 (1991)). The apparatus included two 2-compartment automated test chambers (Model RXYZCM16, Omnitech Electronics, Columbus, OH). The open compartment was connected to the enclosed compartment via a 7.5 x 7.5 cm passageway. The open compartment was brightly lit using a 200 W incandescent light bulb. The experimental room was kept dark. Interruptions of the infrared beams in either chamber were automatically recorded by being linked to a computer through a Digiscan Analyzer (Omnitech Electronics) and the data was analyzed using the Integrated Lab Animal Monitoring System (Omnitech Electronics).\nN.I.H. Swiss-Webster mice were administered vehicle or test drug intraperitoneally (IP), 10 min later they were placed in the center of the lit compartment. The number of transitions between the lit and dark chambers, total activity in the lit chamber and the time spent in the lit chamber were measured during a 10 min test period."}, "maximal electroshock [6]": {"tested_on": "maximal electroshock", "test": "maximal electroshock test", "assay_type": "in vivo, mice", "conditions": "Mus musculus, ip, 20% hydroxypropyl-β-cyclodextrin in water", "source_text": "The anticonvulsant tests are similar to that described above. […]"}, "[7]": {"tested_on": "metrazol induced convulsions", "test": "animal or person", "assay_type": "in vivo, mice", "conditions": "for % Protected: 10 mg/kg"}, "strychnine": {"tested_on": "strychnine", "conditions": "strychnine administered i.v.; data from Worms et al. 1982; cited from earlier work"}}, "note": "pIC50: −log10 of the molar value. Like-named read-outs stand apart in the source and are kept apart here.", "data": [{"smiles": "CC[C@H](O)[C@H]1CC[C@H]2[C@@H]3CC[C@H]4C[C@H](O)CC[C@]4(C)[C@H]3CC[C@]12C", "note": "[3α,20α-dihydroxy-21-methyl-5α-pregnane, 3α,20α-Dihydroxy-21-methyl-5α-pregnane]", "values": [{"measurement": "Vogel (% of control)", "setting": "rats; g-CD, 10 ug", "result": "157.9 % of control"}, {"measurement": "pIC50", "setting": "GR complex", "result": 7.46}, {"measurement": "IMAX", "setting": "GR complex", "result": 28}]}, {"smiles": "O=C1CN=C(c2ccccc2Cl)c2cc([N+](=O)[O-])ccc2N1", "note": "[Clonazepam]", "values": [{"measurement": "ED50 BIC", "setting": "(+)bicuculline; bicuculline, data from Swinyard & Woodhead 1982, NP = no protection", "result": 0.0086, "unit": "mg/kg"}, {"measurement": "ED50 MES", "setting": "maximal electroshock [1]; data from Swinyard & Woodhead 1982", "result": 93, "unit": "mg/kg"}, {"measurement": "ED50 MTZ", "setting": "[2]; metrazol, data from Swinyard & Woodhead 1982, NP = no protection", "result": 0.009, "unit": "mg/kg"}, {"measurement": "ED50 PICRO", "setting": "picrotoxin; picrotoxin, data from Swinyard & Woodhead 1982, NP = no protection", "result": 0.043, "unit": "mg/kg"}, {"measurement": "ED50 RR", "setting": "mice [3]", "result": 0.184, "unit": "mg/kg"}]}, {"smiles": "CC(=O)[C@H]1CC[C@H]2[C@@H]3CC[C@@H]4C[C@H](O)CC[C@]4(C)[C@H]3CC[C@]12C", "note": "[3α-Hydroxy-5β-pregnan-20-one, reference compound]", "values": [{"measurement": "entries into the open-arms", "setting": "mice [4]; 5 mg/kg (p ≤ 0.05)", "result": "significant increases"}, {"measurement": "entries into the open-arms", "setting": "mice [4]; 10 mg/kg (p ≤ 0.01)", "result": "significant increases"}, {"measurement": "time spent on the open-arms", "setting": "mice [4]; 10 mg/kg (p ≤ 0.01)", "result": "significant increases"}, {"measurement": "activity", "setting": "mice [5]; 10 & 20 mg/kg, compared to control groups", "result": "significant (p < 0.01) increases"}, {"measurement": "number of transitions between the dark box and the light box", "setting": "mice [5]; at doses tested, versus control (Dunnett's t-test)", "result": "significantly increased"}]}, {"smiles": "C[C@@H](O)[C@H]1CC[C@H]2[C@@H]3CC[C@@H]4C[C@H](O)CC[C@]4(C)[C@H]3CC[C@]12C", "note": "[3α,20β-Dihydroxy-5β-pregnane]", "values": [{"measurement": "Vogel (% of control)", "setting": "rats; g-CD, 20 ug", "result": "267.3 % of control"}]}, {"smiles": "C[C@]12CC[C@@H](O)C[C@@H]1CC[C@@H]1[C@@H]2CC[C@]2(C)[C@@H](C(=O)CO)CC[C@@H]12", "note": "[3α,21-dihydroxy-5α-pregnan-20-one, reference compound]", "values": [{"measurement": "ED50", "setting": "maximal electroshock [6]", "result": 26.7, "unit": "mg/kg"}, {"measurement": "% Protected", "setting": "[7]; IP, 50% hpbcd, 10 minutes prior to metrazol (85 mg/kg)", "result": 87.5, "unit": "%"}, {"measurement": "ED50", "setting": "[7]; Mus musculus, metrazol s.c., steroid i.p., 20% hydroxypropyl-β-cyclodextrin in water", "result": 8.1, "unit": "mg/kg"}, {"measurement": "pIC50", "setting": "GR complex", "result": 7.12}, {"measurement": "IMAX", "setting": "GR complex", "result": 100}]}, {"smiles": "CC(C)OC1CC2(C)C(CCC3C2CCC2(C)C(C(C)O)CCC32)CC1O", "note": "(stereo not drawn) [3α,20α-Dihydroxy-2β-isopropoxy-5α-pregnane]", "values": [{"measurement": "Vogel (% of control)", "setting": "rats; g-CD, 10 ug", "result": "169.0 % of control"}]}, {"smiles": "CCC[C@H](O)[C@H]1CC[C@H]2[C@@H]3CC[C@H]4C[C@H](O)CC[C@]4(C)[C@H]3CC[C@]12C", "note": "[3α,20α-dihydroxy-21-ethyl-5α-pregnane]", "values": [{"measurement": "Vogel (% of control)", "setting": "rats; g-CD, 20 ug", "result": "225.8 % of control"}, {"measurement": "pIC50", "setting": "GR complex", "result": 7.57}, {"measurement": "IMAX", "setting": "GR complex", "result": 13}]}, {"smiles": "NC(=O)CCC/N=C(\\c1ccc(Cl)cc1)c1cc(F)ccc1O", "note": "[Progabide]", "values": [{"measurement": "ED50 BIC", "setting": "(+)bicuculline; bicuculline administered i.v., data from Worms et al. 1982", "result": 30, "unit": "mg/kg"}, {"measurement": "ED50 MES", "setting": "maximal electroshock [1]; data from Worms et al. 1982", "result": 75, "unit": "mg/kg"}, {"measurement": "ED50 MTZ", "setting": "[2]; metrazol administered i.v., data from Worms et al. 1982", "result": 30, "unit": "mg/kg"}, {"measurement": "ED50 STR", "setting": "strychnine", "result": 75, "unit": "mg/kg"}, {"measurement": "ED50 PICRO", "setting": "picrotoxin; picrotoxin administered i.v., data from Worms et al. 1982", "result": 105, "unit": "mg/kg"}]}, {"smiles": "C[C@H](O)[C@H]1CC[C@H]2[C@@H]3CC[C@H]4C[C@H](O)CC[C@]4(C)[C@H]3CC[C@]12C", "note": "[3α,20a(S)-dihydroxy-5α-pregnane, 3α,20α(S)-Dihydroxy-5α-pregnane]", "values": [{"measurement": "% Protected", "setting": "[7]; IP, micro soln.", "result": 30, "unit": "%"}, {"measurement": "Vogel (% of control)", "setting": "rats; b-CD, 10 ug", "result": "193.0 % of control"}, {"measurement": "pIC50", "setting": "GR complex", "result": 7.00}, {"measurement": "IMAX", "setting": "GR complex", "result": 46}]}, {"smiles": "CC(O)C1CCC2C3CCC4CC(O)C(F)CC4(C)C3CCC12C", "note": "(stereo not drawn) [2β-Fluoro-3α,20α-dihydroxy-5α-pregnane]", "values": [{"measurement": "Vogel (% of control)", "setting": "rats; g-CD, 20 ug", "result": "264.9 % of control"}]}, {"smiles": "CC(C)(O)[C@H]1CC[C@H]2[C@@H]3CC[C@H]4C[C@H](O)CC[C@]4(C)[C@H]3CC[C@]12C", "note": "[3α,20-dihydroxy-20-methyl-5α-pregnane]", "values": [{"measurement": "Vogel (% of control)", "setting": "rats; g-CD, 20 ug", "result": "179.0 % of control"}, {"measurement": "pIC50", "setting": "GR complex", "result": 6.75}, {"measurement": "IMAX", "setting": "GR complex", "result": 40}]}, {"smiles": "CCC1(c2ccccc2)C(=O)NC(=O)NC1=O", "note": "[Phenobarbital]", "values": [{"measurement": "ED50 RR", "setting": "mice [3]", "result": 69, "unit": "mg/kg"}]}, {"smiles": "C[C@H](O)[C@H]1CC[C@H]2[C@@H]3CC[C@@H]4C[C@H](O)CC[C@]4(C)[C@H]3CC[C@]12C", "note": "[3α,20α-Dihydroxy-5β-pregnane]", "values": [{"measurement": "Vogel (% of control)", "setting": "rats; g-CD, 10 ug", "result": "283.3 % of control"}]}, {"smiles": "C#C[C@@]1(O)CC[C@@]2(C)[C@H](CC[C@@H]3[C@@H]2CC[C@]2(C)[C@@H](C(=O)COC(=O)CCC(=O)O)CC[C@@H]32)C1", "note": "[Sodium 3α,21-dihydroxy-3β-ethynyl-5β-pregnan-20-one 21-hemisuccinate]", "values": [{"measurement": "% Control", "setting": "mice [4]; PO, water, 10 mg/kg", "result": 159, "unit": "%"}, {"measurement": "% Protected", "setting": "[7]; mouse, in vivo, ip", "result": 50, "unit": "%"}, {"measurement": "soluble in water", "result": "> 20", "unit": "mg/mL"}, {"measurement": "pIC50", "setting": "GR complex", "result": 6.27}, {"measurement": "IMAX", "setting": "GR complex", "result": 102}]}]}
